According to ChEMBL document CHEMBL1201862, “PubChem BioAssay data set” (2004):
Activity calls are given as the source filed them.

Assays:
[1] = test system: BJ; assay: cytotoxicity toward BJ-TERT-LT-ST fibroblasts, dose response, cell-based, RAS-independent, luminescence (AID 1935); assay type: functional; conditions: Homo sapiens;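 note: BJ fibroblasts immortalized with TERT plus LT and ST oncogenes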
[2] = molecular target: Bifunctional protein GlmU (Mycobacterium tuberculosis, UniProt P9WMN3); assay: Inhibitors of Mycobacterial Glucosamine-1-phosphate acetyl transferase (GlmU). Secondary screen.; set-up: species or system Mycobacterium tuberculosis H37Rv
Sequence of Bifunctional protein GlmU (P9WMN3 whole entry): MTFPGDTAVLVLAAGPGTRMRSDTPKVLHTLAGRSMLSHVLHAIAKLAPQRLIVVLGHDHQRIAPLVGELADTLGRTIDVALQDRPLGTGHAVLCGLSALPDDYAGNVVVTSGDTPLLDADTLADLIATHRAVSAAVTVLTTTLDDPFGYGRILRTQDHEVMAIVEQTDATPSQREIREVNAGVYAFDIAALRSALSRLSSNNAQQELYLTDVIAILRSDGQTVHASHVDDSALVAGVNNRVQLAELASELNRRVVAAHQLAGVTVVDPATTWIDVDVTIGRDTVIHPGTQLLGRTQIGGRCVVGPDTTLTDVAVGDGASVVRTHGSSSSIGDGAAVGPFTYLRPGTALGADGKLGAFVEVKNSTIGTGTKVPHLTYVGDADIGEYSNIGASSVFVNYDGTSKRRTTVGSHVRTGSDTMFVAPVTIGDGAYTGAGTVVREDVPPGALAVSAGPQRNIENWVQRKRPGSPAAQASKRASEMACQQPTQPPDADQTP

[3] = molecular target: T1, ORF 73 (Human herpesvirus 8, UniProt O40947); assay: inhibitors of C-LANA binding to LBS DNA, dose response, biochemical, fluorescence polarization, cherry-picked samples (AID 504725); set-up: species or system Human gammaherpesvirus 8;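 note: fluorescence polarization of a labeled DNA duplex reporting LANA DNA binding; potency is for inhibitors that block LANA binding to the DNA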
T1 sequence (O40947 whole entry): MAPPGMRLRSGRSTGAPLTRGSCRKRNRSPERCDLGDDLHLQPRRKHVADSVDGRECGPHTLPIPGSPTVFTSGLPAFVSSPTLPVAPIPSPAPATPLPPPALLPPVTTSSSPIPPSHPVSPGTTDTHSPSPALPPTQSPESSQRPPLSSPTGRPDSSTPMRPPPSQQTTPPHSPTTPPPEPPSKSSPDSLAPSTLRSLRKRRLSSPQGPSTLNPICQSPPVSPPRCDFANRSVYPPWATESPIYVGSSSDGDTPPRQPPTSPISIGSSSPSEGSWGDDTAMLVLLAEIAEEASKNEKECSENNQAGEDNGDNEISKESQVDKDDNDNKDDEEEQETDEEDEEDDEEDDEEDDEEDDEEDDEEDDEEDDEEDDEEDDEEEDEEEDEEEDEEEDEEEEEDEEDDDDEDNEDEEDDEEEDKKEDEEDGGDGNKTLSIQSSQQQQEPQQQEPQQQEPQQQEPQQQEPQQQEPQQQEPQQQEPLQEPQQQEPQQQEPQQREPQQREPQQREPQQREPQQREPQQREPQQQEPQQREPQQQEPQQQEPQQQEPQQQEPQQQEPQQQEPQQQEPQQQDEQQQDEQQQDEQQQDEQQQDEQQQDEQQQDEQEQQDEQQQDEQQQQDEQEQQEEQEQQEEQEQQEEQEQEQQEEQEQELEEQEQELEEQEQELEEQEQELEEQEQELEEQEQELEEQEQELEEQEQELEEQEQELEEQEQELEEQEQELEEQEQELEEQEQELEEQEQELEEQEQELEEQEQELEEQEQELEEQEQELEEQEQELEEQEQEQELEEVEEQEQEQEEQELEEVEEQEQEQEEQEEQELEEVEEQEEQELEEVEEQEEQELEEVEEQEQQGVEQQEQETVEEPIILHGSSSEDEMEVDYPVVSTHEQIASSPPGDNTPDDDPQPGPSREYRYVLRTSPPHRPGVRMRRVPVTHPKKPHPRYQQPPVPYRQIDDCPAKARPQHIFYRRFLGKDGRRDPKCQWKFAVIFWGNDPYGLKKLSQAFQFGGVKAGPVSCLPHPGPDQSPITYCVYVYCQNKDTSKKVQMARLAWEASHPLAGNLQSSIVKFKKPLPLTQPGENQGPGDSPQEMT

[4] = molecular target: Serine/threonine-protein phosphatase (Homo sapiens, UniProt Q9BPW0); assay: PP5 phosphatase inhibitors, dose response, biochemical, fluorescence (AID 2395)
Sequence of Serine/threonine-protein phosphatase (Q9BPW0 whole entry): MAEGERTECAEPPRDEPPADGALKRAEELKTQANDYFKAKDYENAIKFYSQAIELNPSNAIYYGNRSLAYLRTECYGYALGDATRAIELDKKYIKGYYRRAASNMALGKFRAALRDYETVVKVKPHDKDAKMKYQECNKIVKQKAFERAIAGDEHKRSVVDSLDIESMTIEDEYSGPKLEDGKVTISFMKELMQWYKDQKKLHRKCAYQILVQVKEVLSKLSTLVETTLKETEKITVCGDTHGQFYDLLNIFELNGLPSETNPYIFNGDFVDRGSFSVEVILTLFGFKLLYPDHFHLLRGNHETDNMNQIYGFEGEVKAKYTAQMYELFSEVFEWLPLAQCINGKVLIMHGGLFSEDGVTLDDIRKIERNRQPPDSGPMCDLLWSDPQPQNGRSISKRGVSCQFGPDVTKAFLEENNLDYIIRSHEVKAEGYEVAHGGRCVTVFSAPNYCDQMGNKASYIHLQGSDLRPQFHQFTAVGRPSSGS

[5] = molecular target: Dual specificity protein phosphatase 3 (Homo sapiens, UniProt P51452); assay: VHR phosphatase inhibition, dose response, selectivity assay for STEP inhibitor project, biochemical (AID 602374); assay type: functional; conditions: read-out: IC50_Mean
Sequence of Dual specificity protein phosphatase 3 (P51452 whole entry): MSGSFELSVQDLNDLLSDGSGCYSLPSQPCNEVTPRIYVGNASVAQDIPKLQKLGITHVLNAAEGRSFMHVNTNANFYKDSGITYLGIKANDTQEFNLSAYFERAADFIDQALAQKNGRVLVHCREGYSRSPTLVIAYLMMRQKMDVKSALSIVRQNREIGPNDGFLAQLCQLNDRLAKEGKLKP

[6] = molecular target: Lysine-specific demethylase 4C (Homo sapiens, UniProt Q9H3R0); assay: GASC-1 (JMJD2C) histone demethylase inhibitors, dose response, biochemical, DELFIA europium, cherry-picked samples (AID 488835); assay type: functional
Sequence of Lysine-specific demethylase 4C (Q9H3R0 whole entry): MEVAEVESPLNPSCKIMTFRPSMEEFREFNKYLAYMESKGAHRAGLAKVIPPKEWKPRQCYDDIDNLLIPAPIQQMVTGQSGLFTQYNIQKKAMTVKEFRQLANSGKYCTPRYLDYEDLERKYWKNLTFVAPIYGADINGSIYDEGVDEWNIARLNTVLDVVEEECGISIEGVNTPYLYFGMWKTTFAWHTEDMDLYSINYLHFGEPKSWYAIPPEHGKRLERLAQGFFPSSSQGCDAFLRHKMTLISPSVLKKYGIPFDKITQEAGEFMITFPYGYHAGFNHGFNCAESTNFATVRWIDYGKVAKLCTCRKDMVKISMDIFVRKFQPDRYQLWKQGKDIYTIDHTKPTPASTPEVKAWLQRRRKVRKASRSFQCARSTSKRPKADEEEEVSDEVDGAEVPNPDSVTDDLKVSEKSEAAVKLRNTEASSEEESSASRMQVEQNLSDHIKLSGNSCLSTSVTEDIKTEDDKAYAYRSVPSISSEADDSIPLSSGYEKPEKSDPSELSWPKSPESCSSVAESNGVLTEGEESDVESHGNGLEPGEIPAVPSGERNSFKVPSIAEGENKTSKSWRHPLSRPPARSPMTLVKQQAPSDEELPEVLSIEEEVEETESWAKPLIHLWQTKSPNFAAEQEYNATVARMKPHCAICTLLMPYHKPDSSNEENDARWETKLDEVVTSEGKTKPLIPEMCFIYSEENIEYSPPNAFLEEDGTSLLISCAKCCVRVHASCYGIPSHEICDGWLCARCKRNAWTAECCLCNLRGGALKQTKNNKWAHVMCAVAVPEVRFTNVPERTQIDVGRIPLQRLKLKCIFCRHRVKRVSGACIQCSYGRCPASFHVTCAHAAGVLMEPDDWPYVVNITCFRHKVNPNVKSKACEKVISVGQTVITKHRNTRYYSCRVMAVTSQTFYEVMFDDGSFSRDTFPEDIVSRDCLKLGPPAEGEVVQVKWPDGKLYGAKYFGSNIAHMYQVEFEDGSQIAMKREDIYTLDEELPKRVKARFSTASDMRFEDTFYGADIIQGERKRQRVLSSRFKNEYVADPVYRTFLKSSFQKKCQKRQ

[7] = molecular target: T2, Aminopeptidase N (Plasmodium falciparum FcB1/Columbia, UniProt O96935); assay: P. falciparum M1AAP inhibitors, biochemical, fluorogenic H-Leu-NHMec substrate, 1536-well (AID 1445); set-up: species or system Plasmodium falciparum 3D7, 3D7
T2 sequence (O96935 whole entry): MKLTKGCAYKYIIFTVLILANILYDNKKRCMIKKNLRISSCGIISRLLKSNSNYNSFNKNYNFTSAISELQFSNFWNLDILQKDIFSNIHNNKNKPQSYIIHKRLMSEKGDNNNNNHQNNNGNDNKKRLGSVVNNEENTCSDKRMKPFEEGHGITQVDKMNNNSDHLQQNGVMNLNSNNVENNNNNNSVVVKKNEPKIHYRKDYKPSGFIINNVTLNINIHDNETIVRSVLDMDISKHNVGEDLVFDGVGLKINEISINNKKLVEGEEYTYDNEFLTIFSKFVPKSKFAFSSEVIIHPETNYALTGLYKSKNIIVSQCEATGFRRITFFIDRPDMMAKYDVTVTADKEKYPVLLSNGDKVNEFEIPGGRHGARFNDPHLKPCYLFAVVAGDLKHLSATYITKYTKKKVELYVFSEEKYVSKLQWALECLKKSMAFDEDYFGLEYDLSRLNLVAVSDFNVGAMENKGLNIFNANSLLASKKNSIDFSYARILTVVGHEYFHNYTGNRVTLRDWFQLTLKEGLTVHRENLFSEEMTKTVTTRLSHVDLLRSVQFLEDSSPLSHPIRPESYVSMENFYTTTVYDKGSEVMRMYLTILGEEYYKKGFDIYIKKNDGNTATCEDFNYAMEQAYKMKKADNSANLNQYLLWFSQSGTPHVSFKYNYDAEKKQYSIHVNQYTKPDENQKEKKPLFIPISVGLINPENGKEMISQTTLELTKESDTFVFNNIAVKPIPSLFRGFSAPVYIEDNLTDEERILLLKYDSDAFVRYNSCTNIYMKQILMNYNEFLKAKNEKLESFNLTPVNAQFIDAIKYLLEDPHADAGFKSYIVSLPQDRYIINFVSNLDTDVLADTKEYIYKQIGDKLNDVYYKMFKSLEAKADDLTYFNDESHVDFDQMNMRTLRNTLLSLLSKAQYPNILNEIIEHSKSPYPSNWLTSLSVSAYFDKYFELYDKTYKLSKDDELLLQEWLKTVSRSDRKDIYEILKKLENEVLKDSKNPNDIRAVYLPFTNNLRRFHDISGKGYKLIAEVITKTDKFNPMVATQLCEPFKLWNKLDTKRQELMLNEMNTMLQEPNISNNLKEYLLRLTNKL

## CCN1/C(=C/c2ccc3cc(C)ccc3[n+]2CC)Sc2cc(C)c(C)cc21
[1]
  EC50: 13.7 µM (inconclusive)

## Nc1ccc2nc3c(O)nc(S)nc3nc2c1
[2]
  IC50: 14 µM (active)
[3]
  AC50: 3.62 µM (active)

## O=C1CCCC2=C1C1(O)C(=O)c3ccccc3C1(O)O2 (configuration not stated)
[4]
  IC50: > 0.828 µM (active)

## CSc1ccc(C=NNc2ccc(S(=O)(=O)Nc3ccccc3C(=O)O)cc2[N+](=O)[O-])cc1
[5]
  IC50: 1.27 µM (active)
[6]
  AC50: 5.43 µM (active)

## CC(/C=C1\SC(=S)N(NS(=O)(=O)c2ccccc2)C1=O)=C\c1ccccc1
[7]
  IC50: 45.4 µM (active)
